{
  "source": "patent US20150313896A1",
  "about": "“METHOD FOR TREATING CELL PROLIFERATION DISORDERS” (Galderma Research & Development, priority 2013, published 2015)",
  "key": {"[1]": {"test_system": "Albino hairless SKH1-hr mice", "conditions": "for Skin Thickening: number of mice with observation / Skin Thickening: total number of observations: 40 weeks", "protocol": "Albino hairless SKH1-hr mice (36/sex/group) were treated for 40 weeks with UVR and brimonidine gel or vehicle according to the design in table 11. […] Topical treatments were performed approximately one hour before UVR on Monday, Wednesday and Friday of each week and approximately one hour after UVR Tuesday and Thursday of each week.\n*Monday, Wednesday and Friday of each week: exposure to UVR approximately one hour after test item application. Tuesday and Thursday of each week: exposure to UVR approximately one hour before test item application.\nThe UVR exposure was 600 RBU/week for all test groups in the table."}, "[2]": {"test_system": "SKH1 mice", "assay": "UVB-induced epidermal hyperplasia: EdU detection of proliferating keratinocytes", "type": "in vivo", "protocol": "(§1) SKH1 mice were treated and exposed to UVB irradiation. The back skin of the mice was exposed to 120 mJ/cm^2 UVB using the Biospectra system equipped with UVB sunlamps with a maximum emission peak at 312 nm. Irradiations were performed under isoflurane gaseous anesthesia. Mice were treated with vehicle (PEG400/EtOH/PHY (30/20/50) p/p) or brimonidine tartrate at 0.2% or 2%, by weight, administrated by topical application (100 μl) on a 10 cm^2 area on the upper part of the back using a micropipette. The area is located on the upper part of the back to prevent the animals from liking themselves. Three applications were performed according to the following two treatment schedules:\n(§2) (a) pre-treatment: one application 1 hour prior to UVB irradiation, followed by two more applications 23 hours apart;\n(§3) (b) post-treatment: one application immediately following the UVB irradiation, followed by two more applications 23 hours apart.\n(§4) A compound reference, i.e., an EGFR inhibitor at 4%, by weight, in EtOH/H2O (76/24) was also administrated according to the pre-treatment schedule.\nOne hour after the third topical treatment and one hour before euthanasia, mice received an intraperitoneal (i.p.) injection of 5-ethynyl-2′-deoxyuridine (EdU) at 100 mg/kg. After mouse euthanasia using cervical dislocation, the back skin was removed and immediately fixed in formol. […]\nFor EdU detection, two or three sections of 7 μm per animal were submitted to EdU staining. […] Nuclei were also stained with 4′,6-diamidino-2-phenylindole (DAPI) diluted at 5 mg/mL in Vectashield Hard Set Mounting medium for Fluorescence (ref: H-1400 Vector Laboratories). The number of keratinocytes stained with Alexa Fluor® 594 was counted from digital images (NanoZoomer C9600-12, Hamamatsu Photonics K.K) and the epidermis length of each section determined using an in house dedicated tool.\nData were analyzed using unpaired t test for validation of the UVB irradiation and one-way ANOVA with Dunnett's multiple comparison test for the analysis of the treatment effect (Prism 6; GraphPad Software Inc., San Diego, Calif., USA). […]"}, "[3]": {"test_system": "SKH1 mice", "assay": "UVB-induced epidermal hyperplasia: epidermis thickness (H&E)", "type": "in vivo", "conditions": "for Decrease of the epidermal thickness: post-treatment schedule (immediately after UVB, then twice 23 h apart)", "protocol": "as §1, §2, §3, §4\nOne hour after the third topical treatment and one hour before euthanasia, mice received an intraperitoneal (i.p.) injection of 5-ethynyl-2′-deoxyuridine (EdU) at 100 mg/kg. After mouse euthanasia using cervical dislocation, the back skin was removed and immediately fixed in formol. The formol-fixed skin samples were embedded in paraffin and then submitted to immunohistological studies for epidermal thickness and EdU detection.\nFor epidermal thickness, two sections of 7 μm per animal were stained in hematoxylin and eosin (H&E) stain. Skin histology and the epidermis thickness were analyzed using image analysis (mScope 3.9, Aurora mScope) on scanned slide pictures (NanoZoomer C9600-12, Hamamatsu Photonics K.K).\nData were analyzed using unpaired t test for validation of the UVB irradiation and one-way ANOVA with Dunnett's multiple comparison test for the analysis of the treatment effect (Prism 6; GraphPad Software Inc., San Diego, Calif., USA). A p value of less than 0.05 was regarded as significant."}},
  "note": "Structures can show the parent of a compound that is named as a salt. Where two headings read alike, the source gives them in different places.",
  "data": [
    {"smiles": "Brc1c(NC2=NCCN2)ccc2nccnc12", "note": "[brimonidine tartrate, (5-Bromo-quinoxalin-6-yl)-(4,5-dihydro-1H-imidazol-2-yl)-amine]", "values": [
      {"measurement": "UV-induced skin thickness, statistical effect", "setting": "[1]; 0.18% (w/w) topical", "value": "did not statistically reduce"},
      {"measurement": "UV-induced skin thickness, statistical effect", "setting": "[1]; 1% (w/w) topical", "value": "statistically reduced"},
      {"measurement": "UV-induced skin thickness, statistical effect", "setting": "[1]; 2% (w/w) topical", "value": "statistically reduced"},
      {"measurement": "Skin Thickening: number of mice with observation", "setting": "[1]; female mice (36 tested), 0.18% brimonidine tartrate gel topical, UVR 600 RBU/week", "value": 32},
      {"measurement": "Skin Thickening: number of mice with observation", "setting": "[1]; female mice (36 tested), 1% brimonidine tartrate gel topical, UVR 600 RBU/week", "value": 25},
      {"measurement": "Skin Thickening: number of mice with observation", "setting": "[1]; female mice (36 tested), 2% brimonidine tartrate gel topical, UVR 600 RBU/week", "value": 23},
      {"measurement": "Skin Thickening: total number of observations", "setting": "[1]; female mice, 0.18% brimonidine tartrate gel topical, UVR 600 RBU/week", "value": 521},
      {"measurement": "Skin Thickening: total number of observations", "setting": "[1]; female mice, 1% brimonidine tartrate gel topical, UVR 600 RBU/week", "value": 374},
      {"measurement": "Skin Thickening: total number of observations", "setting": "[1]; female mice, 2% brimonidine tartrate gel topical, UVR 600 RBU/week", "value": 381},
      {"measurement": "Skin Thickening: number of mice with observation", "setting": "[1]; male mice (36 tested), 0.18% brimonidine tartrate gel topical, UVR 600 RBU/week", "value": 34},
      {"measurement": "Skin Thickening: number of mice with observation", "setting": "[1]; male mice (36 tested), 1% brimonidine tartrate gel topical, UVR 600 RBU/week", "value": 27},
      {"measurement": "Skin Thickening: number of mice with observation", "setting": "[1]; male mice (36 tested), 2% brimonidine tartrate gel topical, UVR 600 RBU/week", "value": 24},
      {"measurement": "Skin Thickening: total number of observations", "setting": "[1]; male mice, 0.18% brimonidine tartrate gel topical, UVR 600 RBU/week", "value": 514},
      {"measurement": "Skin Thickening: total number of observations", "setting": "[1]; male mice, 1% brimonidine tartrate gel topical, UVR 600 RBU/week", "value": 392},
      {"measurement": "Skin Thickening: total number of observations", "setting": "[1]; male mice, 2% brimonidine tartrate gel topical, UVR 600 RBU/week", "value": 367},
      {"measurement": "UV-induced skin thickening, effect in words", "setting": "[1]; topical 0.18%, 1% and 2%, UVR 600 RBU/week", "value": "dose-dependent reduction"},
      {"measurement": "Reduction of the number of EdU positive cells", "setting": "[2]; 0.2% topical, post-treatment schedule", "value": 25, "unit": "%"},
      {"measurement": "Reduction of the number of EdU positive cells", "setting": "[2]; 2% topical, post-treatment schedule", "value": "−64", "unit": "%"},
      {"measurement": "Reduction of the number of EdU positive cells", "setting": "[2]; 2% topical, pre-treatment schedule", "value": "−59", "unit": "%"},
      {"measurement": "Decrease of the epidermal thickness", "setting": "[3]; 0.2% (w/w) topical", "value": "−16", "unit": "%"},
      {"measurement": "Inhibition of UVB-induced acanthosis (epidermis thickness)", "setting": "[3]; 0.2% (w/w) topical, pre-treatment schedule", "value": "no effect"},
      {"measurement": "Decrease of the epidermal thickness", "setting": "[3]; 2% (w/w) topical", "value": "−32", "unit": "%"},
      {"measurement": "Inhibition of UVB-induced acanthosis (epidermis thickness)", "setting": "[3]; 2% (w/w) topical, pre-treatment schedule (1 h before UVB 120 mJ/cm^2, then twice 23 h apart)", "value": "−23", "unit": "%"}
    ]}
  ]
}
